Experimental data: ChEMBL document CHEMBL6087478, “Chain Length Does Matter: Development of High-Potency QS-21-Based Vaccine Adjuvants” (J Med Chem, 2025)
Active and inactive are the calls of the source. The rule behind the calls is not given here.

Columns and labels:
Mus musculus [1] = test: Adjuvant activity in OVA-immunized female C57BL/6 mouse assessed as increase IgG antibody titer at 50 ug, sc co-administered with OVA antigen on day 0,7 and 14 and measured on day 14,28,42 by ELISA method; type: functional, organism-based; conditions: dose 50.0 µg, time 42.0 day
Mus musculus [2] = test: Adjuvant activity in OVA-immunized female C57BL/6 mouse assessed as increase IgG2b antibody titer at 50 ug, sc co-administered with OVA antigen on day 0,7 and 14 and measured on day 14,28,42 by ELISA method; type: functional, organism-based; conditions: dose 50.0 µg, time 42.0 day
[3] = Toxicity in C57BL/6 mouse assessed as effect on body weight change at 50 ug, sc in presence of OVA-antigen measured upto 7 days; type: organism-based; conditions: in vivo, 168 h, dose 50 µg, time < 7 day
Mus musculus [4] = test: Adjuvant activity in OVA-immunized female C57BL/6 mouse assessed as increase in serum IgG anti-OVA antibody response at 50 ug, IM co-administered with OVA antigen on day 0,7 and 14 and measured on day 21 by ELISA method; type: functional, organism-based; conditions: dose 50.0 µg, time 21.0 day
Mus musculus [5] = test: Adjuvant activity in OVA-immunized female C57BL/6 mouse assessed as increase IgG2b antibody titer at 20 ug, sc co-administered with OVA antigen on day 0,7 and 14 and measured on day 14,28,42 by ELISA method; type: functional, organism-based; conditions: dose 20.0 µg, time 42.0 day
Mus musculus [6] = test: Adjuvant activity in OVA-immunized female C57BL/6 mouse assessed as increase in serum IgG1 at low dose administered as IM dose co-administered with OVA antigen on day 0,7 and 14 and measured on day 14,28 and 42 by ELISA method; type: functional, organism-based; conditions: time 42.0 day
Mus musculus [7] = test: Adjuvant activity in OVA-immunized female C57BL/6 mouse assessed as increase in serum IgG anti-OVA antibody response at 5 ug, IM co-administered with OVA antigen on day 0,7 and 14 and measured on day 14,28 and 42 by ELISA method; type: functional, organism-based; conditions: dose 5.0 µg, time 42.0 day
[8] = Toxicity in C57BL/6 mouse assessed as effect on body weight change at 50 ug, IM in presence of OVA-antigen measured upto 7 days; conditions: in vivo, 168 h, dose 50 µg, time < 7 day
[9] = Toxicity in C57BL/6 mouse assessed as effect on body weight change at 20 ug, sc in presence of OVA-antigen measured upto 7 days; type: organism-based; conditions: in vivo, 168 h, dose 20 µg, time < 7 day
Mus musculus [10] = test: Adjuvant activity in OVA-immunized female C57BL/6 mouse assessed as induction of antigen-specific Th1 immune responses by measuring increase in anti-OVA specific IgG1 in serum at 50 ug, IM co-administered with OVA antigen on day 0,7 and 14 and measured on day 21 by ELISA method; type: functional, organism-based; conditions: dose 50.0 µg, time 21.0 day
Mus musculus [11] = test: Adjuvant activity in OVA-immunized female C57BL/6 mouse assessed as induction of antigen-specific Th1 immune responses by measuring increase in anti-OVA specific IgG2b in serum at 50 ug, IM co-administered with OVA antigen on day 0,7 and 14 and measured on day 21 by ELISA method; type: functional, organism-based; conditions: dose 50.0 µg, time 21.0 day
Mus musculus [12] = test: Adjuvant activity in OVA-immunized female C57BL/6 mouse assessed as increase IgG antibody titer at 20 ug, sc co-administered with OVA antigen on day 0,7 and 14 and measured on day 14,28,42 by ELISA method; type: functional, organism-based; conditions: dose 20.0 µg, time 42.0 day
Mus musculus [13] = test: Adjuvant activity in OVA-immunized female C57BL/6 mouse assessed as increase in serum IgG2b at low dose administered as IM dose co-administered with OVA antigen on day 0,7 and 14 and measured on day 14,28 and 42 by ELISA method; type: functional, organism-based; conditions: time 42.0 day
Mus musculus [14] = test: Adjuvant activity in OVA-immunized female C57BL/6 mouse assessed as induction of antigen-specific Th2 immune responses by measuring increase in anti-OVA specific IgG1 in serum at 50 ug, IM co-administered with OVA antigen on day 0,7 and 14 and measured on day 21 by ELISA method; type: functional, organism-based; conditions: dose 50.0 µg, time 21.0 day
Mus musculus [15] = test: Adjuvant activity in OVA-immunized female C57BL/6 mouse assessed as induction of antigen-specific Th2 immune responses by measuring increase in anti-OVA specific IgG2b in serum at 50 ug, IM co-administered with OVA antigen on day 0,7 and 14 and measured on day 21 by ELISA method; type: functional, organism-based; conditions: dose 50.0 µg, time 21.0 day
Mus musculus [16] = test: Potency index ratio of QS21 to test compound for adjuvant activity in KLH-immunized female C57BL/6 mouse assessed as increase in serum IgG anti-KLH antibody titer at 50 ug, IM co-administered with KLH-antigen on day 0,7 and 14 and measured on day 14,28 and 42 by ELISA method; type: functional; conditions: dose 50 µg, time 42 day
Mus musculus [17] = test: Adjuvant activity in OVA-immunized female C57BL/6 mouse assessed as increase in IgG2b antibody titer at low dose administered as IM co-administered with OVA antigen on day 0,7 and 14 and measured on day 14,28,42 by ELISA method; type: functional, organism-based; conditions: time 42.0 day
[18] = Toxicity in C57BL/6 mouse assessed as effect on body weight change at 50 ug, IM in presence of KLH measured upto 7 days; conditions: in vivo, 168 h, dose 50 µg, time < 7 day
Mus musculus [19] = test: Adjuvant activity in OVA-immunized female C57BL/6 mouse assessed as increase in IgG antibody titer at low dose administered as IM co-administered with OVA antigen on day 0,7 and 14 and measured on day 14,28,42 by ELISA method; type: functional, organism-based; conditions: time 42.0 day
Mus musculus [20] = test: Adjuvant activity in KLH-immunized female C57BL/6 mouse assessed as increase in serum IgG anti-KLH antibody titer at 50 ug, IM co-administered with KLH-antigen on day 0,7 and 14 and measured on day 14,28 and 42 by ELISA method; type: functional, organism-based; conditions: dose 50.0 µg, time 42.0 day
Mus musculus [21] = test: Adjuvant activity in OVA-immunized female C57BL/6 mouse assessed as increase in IgG antibody titer at 50 ug, IM co-administered with OVA antigen on day 0,7 and 14 and measured on day 14,28,42 by ELISA method; type: functional, organism-based; conditions: dose 50.0 µg, time 42.0 day
Mus musculus [22] = test: Adjuvant activity in OVA-immunized female C57BL/6 mouse assessed as increase in IgG2b antibody titer at 50 ug, IM co-administered with OVA antigen on day 0,7 and 14 and measured on day 14,28,42 by ELISA method; type: functional, organism-based; conditions: dose 50.0 µg, time 42.0 day

## C[C@@H]1O[C@@H](O[C@H]2[C@H](OC(=O)[C@]34CCC(C)(C)C[C@H]3C3=CC[C@@H]5[C@@]6(C)CC[C@H](O)[C@@](C)(C=O)[C@@H]6CC[C@@]5(C)[C@]3(C)CC4)O[C@H](CO)[C@H](NC(=O)CCCCCCCCCCC(=O)O)[C@@H]2O)[C@H](O)[C@H](O)[C@H]1O[C@@H]1OC[C@@H](O)[C@H](O)[C@H]1O
Mus musculus [1]
  Activity: Active
Mus musculus [2]
  Activity: Active
[3]
  Activity: Non-toxic

## C[C@@H]1O[C@@H](O[C@H]2[C@H](OC(=O)[C@]34CCC(C)(C)C[C@H]3C3=CC[C@@H]5[C@@]6(C)CC[C@H](O)[C@@](C)(C=O)[C@@H]6CC[C@@]5(C)[C@]3(C)CC4)O[C@H](CO)[C@H](NC(=O)CCCCCCCCCCCCCCC(=O)O)[C@@H]2O)[C@H](O)[C@H](O)[C@H]1O[C@@H]1OC[C@@H](O)[C@H](O)[C@H]1O
Mus musculus [4]
  Activity: Active
Mus musculus [5]
  Activity: Active
Mus musculus [6]
  Activity: Active
Mus musculus [7]
  Activity: Active
[8]
  Activity: Non-toxic
[9]
  Activity: Non-toxic
Mus musculus [10]
  Activity: Active
Mus musculus [11]
  Activity: Active
Mus musculus [12]
  Activity: Active
Mus musculus [13]
  Activity: Active
Mus musculus [14]
  Activity: Active
Mus musculus [15]
  Activity: Active
Mus musculus [16]
  fold change (FC): 10
Mus musculus [17]
  Activity: Active
[18]
  Activity: Non-toxic
Mus musculus [19]
  Activity: Active

## CC1(C)CC[C@]2(C(=O)O[C@@H]3O[C@H](CO)[C@@H](O)[C@H](O[C@@H]4O[C@H](CO)[C@@H](O)[C@H](O[C@@H]5O[C@H](CO)[C@@H](O)[C@H](O[C@@H]6O[C@H](CO)[C@@H](O)[C@H](O[C@@H]7O[C@H](CO)[C@@H](O)[C@H](O)[C@H]7O)[C@H]6O)[C@H]5O)[C@H]4O)[C@H]3O)[C@H](O)C[C@]3(C)C(=CC[C@@H]4[C@@]5(C)CC[C@H](O[C@@H]6O[C@H](CO)[C@@H](O)[C@H](O[C@@H]7O[C@H](CO)[C@@H](O)[C@H](O[C@@H]8O[C@H](CO)[C@@H](O)[C@H](O)[C@H]8O)[C@H]7O)[C@H]6O)[C@@](C)(C=O)[C@@H]5CC[C@]43C)[C@@H]2C1
Mus musculus [5]
  Activity: Active
Mus musculus [12]
  Activity: Active

## C[C@@H]1O[C@@H](O[C@H]2[C@H](OC(=O)[C@]34CCC(C)(C)C[C@H]3C3=CC[C@@H]5[C@@]6(C)CC[C@H](O)[C@@](C)(C=O)[C@@H]6CC[C@@]5(C)[C@]3(C)CC4)O[C@H](CO)[C@H](NC(=O)CCCCCCCCCCCCC(=O)O)[C@@H]2O)[C@H](O)[C@H](O)[C@H]1O[C@@H]1OC[C@@H](O)[C@H](O)[C@H]1O
Mus musculus [4]
  Activity: Active
Mus musculus [20]
  Activity: Active
Mus musculus [21]
  Activity: Active
Mus musculus [1]
  Activity: Active
Mus musculus [2]
  Activity: Active
Mus musculus [22]
  Activity: Active
[8]
  Activity: Non-toxic
[3]
  Activity: Non-toxic
Mus musculus [10]
  Activity: Active
Mus musculus [11]
  Activity: Active
Mus musculus [14]
  Activity: Active
Mus musculus [15]
  Activity: Active
[18]
  Activity: Non-toxic
